Reference: patent US20100022556A1, “Therapeutic combinations comprising a long acting dihydropyridine calcium-channel blocker and a statin” (CHIESI FARMACEUTICI S.P.A., priority 2005, published 2010)

Legend:
[1] = test system: perfused rat heart preparations submitted to ischemia-reperfusion; experiment: Myocardial ischemia-reperfusion damage, perfused hearts from orally treated rats; format: in vivo, Male Wistar rats; settings: oral gavage once a day for 5 days; manidipine 1 and 3 mg/kg, simvastatin 1 mg/kg, alone or combined
Procedure: The hearts were excised from rats orally treated for 5 consecutive days with manidipine and simvastatin alone or in combination. […] Data are means±SEM of 8 hearts per group. *P<0.05, **P<0.01, ***P<0.001 vs control; #P<0.01 vs simvastatin alone.
The aim of this study was to evaluate the protective effects of the manidipine-simvastatin combination against myocardial ischemia-reperfusion damage in the rat.
The study was performed according to a method described previously (Rossoni G et al Pharmacol Exp Ther. 2003 307(2), 633-9).
Male Wistar rats were randomly divided into six groups (n=6-8 rats per group). Manidipine (1 mg/kg and 3 mg/kg) simvastatin (1 mg/kg) were administered alone or in combination by oral gavage once a day for five consecutive days.
The following parameters were determined:
i) the left ventricular end-diastolic pressure (LVEDP) and the left ventricular developed pressure (LVDevP; peak left ventricular systolic pressure minus LVEDP);
ii) the activities of creatine kinase (CK) and lactate dehydrogenase (LDH) in the heart perfusate.
The data were expressed as mean±S.E.M (standard error of the mean).

[2] = test system: plasma tissue plasminogen activator (t-PA); experiment: Plasma t-PA activity in hypertensive, hypercholesterolemic patients; format: in vivo, human; settings: for t-PA: plasma activity, patients, end of 12 week treatment
Procedure: (§1) The aim of this study was to evaluate the effect of the manidipine-simvastatin combination on plasma tissue plasminogen activator (t-PA) and inhibitor (PAI-1) activity, on plasma intercellular adhesion molecule type-1 (ICAM-1) and on serum C-reactive protein (CRP) in hypertensive, hypercholesterolemic patients.
(§2) After 4 week placebo run-in period, 30 hypertensive hypercholesterolemic patients were randomized to a manidipine 20 mg or simvastatin 40 mg or a manidipine-simvastatin fixed combination treatment, according to 3×3 cross-over design; each treatment had 12 week duration.
(§3) The last day of the placebo run-in period and of each treatment period blood pressure was measured and a venous blood sample was taken (at the same hour in the morning) to evaluate plasma t-PA and PAI-1 activity, TC plasma, ICAM-1 and CRP.

total cholesterol = experiment: Total cholesterol (TC) in hypertensive, hypercholesterolemic patients; format: in vivo, human; settings: for TC: patients, end of 12 week treatment
Procedure: as §3

[3] = test system: plasma intercellular adhesion molecule type-1 (ICAM-1); experiment: Plasma ICAM-1 in hypertensive, hypercholesterolemic patients; format: in vivo, human; settings: for change in ICAM-1 mean value vs placebo: 12 week treatment; for ICAM-1: plasma, patients, end of 12 week treatment
Procedure: as §1, §2, §3

[4] = Blood pressure in hypertensive, hypercholesterolemic patients (3x3 cross-over trial); format: in vivo, human; settings: manidipine 20 mg, simvastatin 40 mg or fixed combination, end of 12 week treatment
Procedure: as §1, §2, §3

[5] = test system: serum C-reactive protein (CRP); experiment: Serum CRP in hypertensive, hypercholesterolemic patients; format: in vivo, human; settings: end of 12 week treatment
Procedure: as §1, §2, §3

[6] = test system: ischemic-reperfused myocardium; settings: isolated rat hearts; simvastatin: normocholesterolemic rat hearts; cited from earlier work
inhibitor (PAI-1) = experiment: Plasma PAI-1 activity in hypertensive, hypercholesterolemic patients; format: in vivo, human; settings: for change in PAI-1 activity vs placebo: 12 week treatment; for PAI-1: plasma activity, patients, end of 12 week treatment
Procedure: as §1, §2, §3

[7] = change vs placebo, 12 week treatment

Row | Structure (SMILES) | rise in LVEDP during ischemia and reperfusion [1] | change in t-PA activity vs placebo [2, 7] | t-PA [2] | TC (total cholesterol) | change in ICAM-1 mean value vs placebo [3] | ICAM-1 [3] | DBP [4] | SBP [4] | CRP [5] | protection of ischemic-reperfused myocardium [6] | change in PAI-1 activity vs placebo (inhibitor (PAI-1)) | PAI-1 (inhibitor (PAI-1)) | change in total cholesterol mean value vs placebo (total cholesterol; [7])
1 | COC(=O)C1=C(C)NC(C)=C(C(=O)OCCN2CCN(C(c3ccccc3)c3ccccc3)CC2)C1c1cccc([N+](=O)[O-])c1 (racemic) [Manidipine, (±)-1,4-dihydro-2,6-dimethyl-4-(3-nitrophenyl)-3,5-pyridinedicarboxylic acid 2-[4-(diphenylmethyl)-1-piperazinyl]ethyl methyl ester] | significantly reduced according to the dose used | +0.22 U/ml | 0.71 ± 0.19 U/ml | 253.8 ± 29.6 mg/dL | -17.6 ng/mL | 220.2 ± 29.8 ng/mL | 84.1 ± 4.8 mmHg | 140.5 ± 10.7 mmHg | 0.34 ± 0.20 mg/dL | relevant cardioprotection | did not affect | 24.9 ± 12.6 U/ml | –
2 | CCC(C)(C)C(=O)O[C@H]1C[C@@H](C)C=C2C=C[C@H](C)[C@H](CC[C@@H]3C[C@@H](O)CC(=O)O3)[C@H]21 [Simvastatin, simvastatin] | – | – | 0.51 ± 0.14 U/ml | 202.2 ± 26.4 mg/dL | -30.4 ng/mL | 207.4 ± 26 ng/mL | 98.2 ± 6.2 mmHg | 155.4 ± 11.9 mmHg | 0.16 ± 0.12 mg/dL | – | −8.5 U/ml | 16.1 ± 7.3 U/ml | -52.7 mg/dL
3 | COC(=O)C1=C(C)NC(C)=C(C(=O)OC2CCCN(Cc3ccccc3)C2)C1c1cccc([N+](=O)[O-])c1 (centres unmarked) [benidipine] | – | – | – | – | – | – | – | – | – | relevant cardioprotection | – | – | –
